Read-outs that look alike come from different tables or passages of the source.
What was measured:
Type in all cases: biochemical
[1] = biological target: T1, human KDR enzyme (Homo sapiens, UniProt P35968); experiment: KDR substrate (PLCγ) phosphorylation, scintillation assay; settings: read-out: KDR % inhib at 10 μM
T1 construct: The cytoplasmic domain of the human KDR enzyme; GST; made in house; host or cells: SF21 insect cells (baculovirus)
Outline: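 GST-fused human KDR cytoplasmic domain from SF21 cells (about 60% pure, 100 ng) phosphorylated 2 μg of GST-PLCγ SH2-SH3 fragment. The trigger solution held γ33P-ATP with 2 μM cold ATP, in MOPS buffer pH 7.2 with Mg2+, Mn2+, vanadate and NaF. Reactions ran 1 h at 37 °C, were stopped with EDTA and counted by scintillation; results are % inhibition versus the no-compound control.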

[2] = biological target: T2, human IGF1R cytoplasmic domain (Homo sapiens, UniProt P08069); experiment: IGF1R autophosphorylation inhibition, time resolved fluorescence (HTRF) assay; settings: read-out: IGF1R % inhib at 10 μM
T2 construct: The human IGF1R cytoplasmic domain was cloned; made in house; host or cells: SF21 insect cells (baculovirus)
Description: The inhibitory activity of the compounds on IGF1R is determined by measuring the inhibition of the autophosphorylation of the enzyme using a time resolved fluorescence (HTRF) assay.
The human IGF1R cytoplasmic domain was cloned, as a fusion with glutathione S-transferase (GST), into the baculovirus expression vector pFastBac-GST. The protein was expressed in SF21 cells and purified to approximately 80% homogeneity.
The kinase activity was determined by incubating the enzyme with various concentrations of test compound in a 50 mM Hepes buffer, pH 7.5, containing 5 mM MnCl2, 50 mM NaCl, 3% glycerol, 0.025% Tween […] of ATP. The enzyme reaction is stopped by adding 100 mM Hepes buffer, pH 7.0, containing 0.4 M KF, 133 mM EDTA and 0.1% BSA containing an anti-GST antibody labeled with XL665 and an antiphosphotyrosine antibody conjugated to europium cryptate (Eu-K). The characteristics of the two fluorophores, XL-665 and Eu-K, are available in G. Mathis et al., Anticancer Research, 1997, 17, pages 3011-3014. The transfer of energy from the excited europium cryptate to the acceptor XL665 is proportional to the degree of autophosphorylation of IGF1R. The long-lived signal specific for XL-665 is measured in a Victor analyzer plate counter (Perkin-elmer). The inhibition of the IGF1R autophosphorylation activity with compounds of the invention is expressed as percentage inhibition compared to a control whose activity is measured in the absence of test compound.

[3] = biological target: T3, human FAK (Homo sapiens, UniProt Q05397); experiment: FAK autophosphorylation inhibition, time resolved fluorescence (HTRF) assay; settings: 10 μM (values without asterisk); read-out: FAK % inhib at 10 μM
T3 construct: The complete cDNA of human FAK; made in house; host or cells: baculovirus expression system (vector pFastBac HTc)
Outline: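 His-tagged full-length human FAK from baculovirus (6.6 µg/ml) self-phosphorylates with 15 µM ATP in HEPES pH 7.2, MgCl2, vanadate, 1 h at 37 °C. HTRF detection (Eu-anti-phosphotyrosine / XL665-anti-His), 665/620 nm ratio; % inhibition vs untreated control, duplicate mean.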

[4] = biological target: T4, Aurora2 kinase (Homo sapiens, UniProt O14965); experiment: Aurora2 kinase radioactivity scintillation assay using nickel chelate (NuMA substrate); settings: read-out: Aurora2 % inhib at 10 μM
T4 construct: A complete recombinant Aurora2 enzyme; His tag (N); made in house; host or cells: E. coli
T4 sequence (O14965 1-403): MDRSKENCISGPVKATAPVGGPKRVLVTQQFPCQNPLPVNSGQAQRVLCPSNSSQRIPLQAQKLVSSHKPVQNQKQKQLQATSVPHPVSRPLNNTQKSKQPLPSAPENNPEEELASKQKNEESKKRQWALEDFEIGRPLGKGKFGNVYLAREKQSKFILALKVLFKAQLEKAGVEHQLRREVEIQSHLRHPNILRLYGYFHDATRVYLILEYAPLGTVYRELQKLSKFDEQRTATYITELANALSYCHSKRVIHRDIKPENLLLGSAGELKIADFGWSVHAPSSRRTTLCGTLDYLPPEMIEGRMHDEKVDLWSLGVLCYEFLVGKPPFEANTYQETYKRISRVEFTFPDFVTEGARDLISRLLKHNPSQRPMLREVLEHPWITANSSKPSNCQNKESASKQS
Outline: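 His-tagged full-length Aurora2 (0.02 μM, E. coli) phosphorylating His-tagged NuMA C-terminal fragment (0.5 μM) with 1 μM ATP plus [33P]-ATP, 30 min at 37 °C, pH 7.5 Tris buffer with MgCl2. Nickel-chelate scintillation read; percent inhibition versus no-compound control.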

T1 sequence (P35968 786-1356 limits assumed): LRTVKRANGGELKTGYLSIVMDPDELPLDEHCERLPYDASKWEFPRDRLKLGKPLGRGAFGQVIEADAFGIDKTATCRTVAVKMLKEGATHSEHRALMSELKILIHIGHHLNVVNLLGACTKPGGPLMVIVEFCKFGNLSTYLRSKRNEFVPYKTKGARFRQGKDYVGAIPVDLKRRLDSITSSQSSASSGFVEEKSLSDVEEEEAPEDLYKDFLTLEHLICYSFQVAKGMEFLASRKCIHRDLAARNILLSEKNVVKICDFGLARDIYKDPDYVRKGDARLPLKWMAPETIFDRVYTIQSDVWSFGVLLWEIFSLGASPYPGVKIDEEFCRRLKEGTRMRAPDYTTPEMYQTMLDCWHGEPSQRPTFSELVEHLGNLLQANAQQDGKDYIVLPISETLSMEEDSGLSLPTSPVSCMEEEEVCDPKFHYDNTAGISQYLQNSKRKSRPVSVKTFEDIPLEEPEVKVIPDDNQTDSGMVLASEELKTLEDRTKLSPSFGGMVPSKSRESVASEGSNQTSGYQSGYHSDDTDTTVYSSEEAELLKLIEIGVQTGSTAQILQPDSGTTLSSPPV
T2 sequence (P08069 960-1367 limits assumed): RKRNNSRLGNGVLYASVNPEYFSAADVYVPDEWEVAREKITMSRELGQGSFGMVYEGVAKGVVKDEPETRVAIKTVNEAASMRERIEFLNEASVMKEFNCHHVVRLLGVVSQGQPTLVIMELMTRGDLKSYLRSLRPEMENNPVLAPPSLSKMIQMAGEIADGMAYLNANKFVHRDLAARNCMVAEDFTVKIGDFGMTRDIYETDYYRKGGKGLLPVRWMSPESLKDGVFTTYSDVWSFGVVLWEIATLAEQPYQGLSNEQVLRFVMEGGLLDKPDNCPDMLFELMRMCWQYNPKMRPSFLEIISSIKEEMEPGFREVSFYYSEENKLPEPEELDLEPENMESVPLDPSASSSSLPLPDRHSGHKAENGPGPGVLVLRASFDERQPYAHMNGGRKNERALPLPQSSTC
T3 sequence (Q05397 whole entry): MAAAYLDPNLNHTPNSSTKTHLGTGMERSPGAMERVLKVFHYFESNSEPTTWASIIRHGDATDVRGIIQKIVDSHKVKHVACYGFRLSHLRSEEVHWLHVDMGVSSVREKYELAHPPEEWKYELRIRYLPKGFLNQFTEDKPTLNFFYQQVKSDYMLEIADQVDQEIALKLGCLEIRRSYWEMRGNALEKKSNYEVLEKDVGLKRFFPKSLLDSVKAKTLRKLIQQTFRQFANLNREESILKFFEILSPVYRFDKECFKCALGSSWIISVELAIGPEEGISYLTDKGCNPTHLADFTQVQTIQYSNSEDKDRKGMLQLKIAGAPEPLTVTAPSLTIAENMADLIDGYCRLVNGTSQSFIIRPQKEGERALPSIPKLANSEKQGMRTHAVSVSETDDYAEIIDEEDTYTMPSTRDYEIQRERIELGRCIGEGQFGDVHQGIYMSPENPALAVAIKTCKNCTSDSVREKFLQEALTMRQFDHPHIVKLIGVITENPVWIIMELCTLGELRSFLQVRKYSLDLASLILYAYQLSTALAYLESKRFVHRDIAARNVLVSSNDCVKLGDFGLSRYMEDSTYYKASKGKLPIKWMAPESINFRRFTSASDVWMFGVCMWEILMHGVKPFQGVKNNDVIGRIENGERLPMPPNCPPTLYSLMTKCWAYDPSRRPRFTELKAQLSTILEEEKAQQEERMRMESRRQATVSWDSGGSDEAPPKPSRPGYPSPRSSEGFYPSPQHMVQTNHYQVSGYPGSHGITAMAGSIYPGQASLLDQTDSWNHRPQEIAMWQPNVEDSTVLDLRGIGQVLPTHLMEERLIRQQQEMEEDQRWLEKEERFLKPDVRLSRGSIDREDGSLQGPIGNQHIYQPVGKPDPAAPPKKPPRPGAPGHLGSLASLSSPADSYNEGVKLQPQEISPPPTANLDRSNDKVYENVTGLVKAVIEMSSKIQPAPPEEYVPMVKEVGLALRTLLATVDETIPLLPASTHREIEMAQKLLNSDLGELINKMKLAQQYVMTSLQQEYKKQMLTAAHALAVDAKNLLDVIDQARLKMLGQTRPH

Row | Compound | inhibition at 10 µM ([1]; 10 μM) [%] | inhibition at 10 µM ([2]; 10 μM) [%] | inhibition at 10 µM [3] [%] | inhibition at 10 µM ([4]; 10 μM) [%] | inhibition at 10 µM [1] [%] | inhibition at 10 µM [2] [%] | inhibition at 10 µM [4] [%]
1 | CS(=O)(=O)c1ccc(S(=O)(=O)Nc2ccc3[nH]nc(-c4ccccc4)c3c2)cc1 [Example 155, 4-Methanesulfonyl-N-(3-phenyl-1H-indazol-5-yl)-benzenesulfonamide] | 61 | 50 | 5 | 61 | – | – | –
2 | O=S(=O)(Nc1ccc2[nH]nc(-c3ccccc3)c2c1)c1cccc2cccnc12 [Example 111, N-(3-Phenyl-1H-indazol-5-yl)quinoline-8-sulfonamide] | 83 | 99 | 66 | 100 | – | – | –
3 | CS(=O)(=O)c1ccccc1S(=O)(=O)Nc1ccc2[nH]nc(-c3cccc([N+](=O)[O-])c3)c2c1 [Example 162, 2-Methanesulfonyl-N-[3-(3-nitrophenyl)-1H-indazol-5-yl]-benzenesulfonamide] | 57 | 82 | 97 | 91 | – | – | –
4 | CCCCS(=O)(=O)Nc1ccc2[nH]nc(-c3ccccc3)c2c1 [Example 129, N-(3-Phenyl-1H-indazol-5-yl)-butanesulfonamide] | 58 | 30 | 46 | 64 | – | – | –
5 | Cc1ccc(-c2n[nH]c3ccc(NS(=O)(=O)c4ccccc4S(C)(=O)=O)cc23)cc1N [Example 204, N-[3-(3-Amino-4-methyl-phenyl)-1H-indazol-5-yl]-2-methanesulfonyl-benzenesulfonamide] | 67 | 78 | 97 | 95 | – | – | –
6 | O=[N+]([O-])c1ccc(S(=O)(=O)Nc2ccc3[nH]nc(-c4ccccc4)c3c2)cc1 [Example 119, 4-Nitro-N-(3-phenyl-1H-indazol-5-yl)benzenesulfonamide] | 78 | 50 | 25 | 50 | – | – | –
7 | CS(=O)(=O)c1ccccc1S(=O)(=O)Nc1ccc2[nH]nc(-c3ccc(Br)cc3F)c2c1 [Example 212, N-[3-(4-Bromo-2-fluoro-phenyl)-1H-indazol-5-yl]-2-methanesulfonyl-benzenesulfonamide] | 47 | 65 | 72 | 86 | – | – | –
8 | CS(=O)(=O)c1ccccc1S(=O)(=O)Nc1ccc2[nH]nc(C(=O)NC3CCCCC3)c2c1 [Example 29, N-Cyclohexyl-5-(2-methylsulfonylbenzenesulfonylamino)-1H-indazole-3-carboxamide] | 8 | 96 | 0 | 80 | – | – | –
9 | CC(C)c1cccc(-c2n[nH]c3ccc(NS(=O)(=O)c4ccccc4S(C)(=O)=O)cc23)c1 [Example 203, N-[3-(3-Isopropylphenyl)-1H-indazol-5-yl]-2-methanesulfonyl-benzenesulfonamide] | 39 | 59 | 86 | 84 | – | – | –
10 | CS(=O)(=O)c1ccccc1S(=O)(=O)Nc1ccc2[nH]nc(-c3ccccc3F)c2c1 [Example 188, N-[3-(2-Fluorophenyl)-1H-indazol-5-yl]-2-methanesulfonyl-benzenesulfonamide] | 64 | 61 | 91 | 74 | – | – | –
11 | COc1ccc(-c2n[nH]c3ccc(NS(=O)(=O)c4ccccc4S(C)(=O)=O)cc23)c(OC)c1OC [Example 214, 2-Methanesulfonyl-N-[3-(2,3,4-trimethoxyphenyl)-1H-indazol-5-yl]-benzenesulfonamide] | 56 | 21 | 60 | 67 | – | – | –
12 | C[Si](C)(C)C#Cc1cccc(-c2n[nH]c3ccc(NS(=O)(=O)c4ccccc4S(C)(=O)=O)cc23)c1 [Example 91, 2-Methylsulfonyl-N-[3-(3-trimethylsilanylethynylphenyl)-1H-indazol-5-yl]benzenesulfonamide] | – | – | 95 | – | 35 | 7 | 11
13 | CS(=O)(=O)c1ccccc1S(=O)(=O)Nc1ccc2[nH]nc(-c3ccc4c(c3)OCO4)c2c1 [Example 196, N-[3-(Benzo[1,3]dioxol-5-yl)-1H-indazol-5-yl]-2-methanesulfonyl-benzenesulfonamide] | 73 | 76 | 94 | 94 | – | – | –
14 | CC(=O)c1ccc(-c2n[nH]c3ccc(NS(=O)(=O)c4ccccc4S(C)(=O)=O)cc23)cc1 [Example 207, N-[3-(4-Acetylphenyl)-1H-indazol-5-yl]-2-methanesulfonyl-benzenesulfonamide] | 45 | 56 | 91 | 94 | – | – | –

Now from value to compound, other results behind:

Row | inhibition at 10 µM ([1]; 10 μM) [%] | inhibition at 10 µM ([2]; 10 μM) [%] | inhibition at 10 µM [3] [%] | inhibition at 10 µM ([4]; 10 μM) [%] | Compound | inhibition at 10 µM [1] [%] | inhibition at 10 µM [2] [%] | inhibition at 10 µM [4] [%]
15 | 48 | 61 | 58 | 85 | CS(=O)(=O)c1ccccc1S(=O)(=O)Nc1ccc2[nH]nc(-c3ccc(OC(F)(F)F)cc3)c2c1 [Example 206, N-[3-(4-Trifluoromethoxy-phenyl)-1H-indazol-5-yl]-2-methanesulfonyl-benzenesulfonamide] | – | – | –
16 | 82 | 82 | 90 | 95 | O=C(Nc1n[nH]c2ccc(NS(=O)(=O)c3cc(F)cc(F)c3)cc12)c1ccccc1 [Example 46, N-[5-(3,5-Difluorobenzenesulfonylamino)-1H-indazol-3-yl]benzamide] | – | – | –
17 | 71 | 66 | 90 | 91 | Cc1ccc(-c2n[nH]c3ccc(NS(=O)(=O)c4ccccc4S(C)(=O)=O)cc23)cc1 [Example 164, 2-Methanesulfonyl-N-(3-p-tolyl-1H-indazol-5-yl)-benzenesulfonamide] | – | – | –
18 | 49 | 66 | 94 | 92 | Cc1cc(-c2n[nH]c3ccc(NS(=O)(=O)c4ccccc4S(C)(=O)=O)cc23)ccc1F [Example 222, N-[3-(4-Fluoro-3-methyl-phenyl)-1H-indazol-5-yl]-2-methanesulfonyl-benzenesulfonamide] | – | – | –
19 | 25 | 0 | -1 | 56 | CS(=O)(=O)c1ccccc1S(=O)(=O)Nc1ccc2[nH]nc(-c3cccc(Cl)c3Cl)c2c1 [Example 208, N-[3-(2,3-Dichlorophenyl)-1H-indazol-5-yl]-2-methanesulfonyl-benzenesulfonamide] | – | – | –
20 | 65 | 75 | 61 | 89 | CS(=O)(=O)c1ccccc1S(=O)(=O)Nc1ccc2[nH]nc(-c3ccc(Br)cc3)c2c1 [Example 161, N-[3-(4-Bromophenyl)-1H-indazol-5-yl]-2-methanesulfonyl-benzenesulfonamide] | – | – | –
